# Assay results reported in ChEMBL document CHEMBL1201862, “PubChem BioAssay data set” (2004).
#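 In this assay, cells in 96-well plates receive the compound at five concentrations for 48 hours. Endpoints are linearly interpolated between the surrounding concentrations. Here, GI50 denotes the concentration required for 50% inhibition of growth.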 Activity calls are given as the source filed them. Cut-off read from the data, not from the text of the source: active = GI50 up to about 1.1 µM and inactive = higher.
# Tests used:
# Assay in all cases: inhibition of tumour cell growth, NCI panel, 48 h
# DMS-114 = test system: DMS-114
# HT-29 = test system: HT-29
# SNB-78 = test system: SNB-78
# HCC 2998 = test system: HCC 2998
# CAKI-1 = test system: CAKI-1
# SNB-75 = test system: SNB-75
# KM-20L2 = test system: KM-20L2
# OVCAR-4 = test system: OVCAR-4
# OVCAR-8 = test system: OVCAR-8
# A498 = test system: A498
# 786-0 = test system: 786-0
# DMS-273 = test system: DMS-273
# NCI-H460 = test system: NCI-H460
# MOLT-4 = test system: MOLT-4
# SK-MEL-2 = test system: SK-MEL-2
# RXF 393 = test system: RXF 393
# Malme-3M = test system: Malme-3M
# UACC-62 = test system: UACC-62
# M14 = test system: M14
# M19-MEL = test system: M19-MEL
# HOP-62 = test system: HOP-62
# UACC-257 = test system: UACC-257
# IGROV-1 = test system: IGROV-1
# SW-620 = test system: SW-620
# NCI-H226 = test system: NCI-H226
# NCI-H522 = test system: NCI-H522
# EKVX = test system: EKVX
# SN12C = test system: SN12C
# TK-10 = test system: TK-10
# ACHN = test system: ACHN
# UO-31 = test system: UO-31
# DLD-1 = test system: DLD-1
# OVCAR-5 = test system: OVCAR-5
# SF-295 = test system: SF-295
# NCI-H23 = test system: NCI-H23
# SK-OV-3 = test system: SK-OV-3
# HOP-92 = test system: HOP-92
# KM12 = test system: KM12
# U-251 = test system: U-251
# SNB-19 = test system: SNB-19
# LOX IMVI = test system: LOX IMVI
# SF-539 = test system: SF-539
# HCT-15 = test system: HCT-15
# HCT-116 = test system: HCT-116
# RPMI-8226 = test system: RPMI-8226
# A549 = test system: A549
# SK-MEL-5 = test system: SK-MEL-5
# SF-268 = test system: SF-268
# OVCAR-3 = test system: OVCAR-3
# CCRF-CEM = test system: CCRF-CEM
# K562 = test system: K562
# SK-MEL-28 = test system: SK-MEL-28
# HL-60 = test system: HL-60
# COLO 205 = test system: COLO 205
structure (smiles),measurement,setting,value
Cc1cccc(=O)c([O-])c1.Cc1cccc(=O)c([O-])c1.[Bi+3].[Cl-],GI50,DMS-114,3.3 µM (inactive)
same,GI50,HT-29,11.4 µM (inactive)
same,GI50,SNB-78,24 µM (inactive)
same,GI50,HCC 2998,11.5 µM (inactive)
same,GI50,CAKI-1,15.5 µM (inactive)
same,GI50,SNB-75,10 µM (inactive)
same,GI50,KM-20L2,2.99 µM (inactive)
same,GI50,OVCAR-4,6.07 µM (inactive)
same,GI50,OVCAR-8,3.72 µM (inactive)
same,GI50,A498,16.5 µM (inactive)
same,GI50,786-0,13.7 µM (inactive)
same,GI50,DMS-273,7.29 µM (inactive)
same,GI50,NCI-H460,4.32 µM (inactive)
same,GI50,MOLT-4,5.12 µM (inactive)
same,GI50,SK-MEL-2,16.8 µM (inactive)
same,GI50,RXF 393,8.39 µM (inactive)
same,GI50,Malme-3M,11.9 µM (inactive)
same,GI50,UACC-62,7.96 µM (inactive)
same,GI50,M14,7.55 µM (inactive)
same,GI50,M19-MEL,11 µM (inactive)
same,GI50,HOP-62,14 µM (inactive)
same,GI50,UACC-257,8.32 µM (inactive)
same,GI50,IGROV-1,12.3 µM (inactive)
same,GI50,SW-620,5.47 µM (inactive)
same,GI50,NCI-H226,18.1 µM (inactive)
same,GI50,NCI-H522,2.03 µM (inactive)
same,GI50,EKVX,15.9 µM (inactive)
same,GI50,SN12C,11.8 µM (inactive)
same,GI50,TK-10,17.5 µM (inactive)
same,GI50,ACHN,7.31 µM (inactive)
same,GI50,UO-31,11.5 µM (inactive)
same,GI50,DLD-1,9.95 µM (inactive)
same,GI50,OVCAR-5,14.9 µM (inactive)
same,GI50,SF-295,10.4 µM (inactive)
same,GI50,NCI-H23,10.9 µM (inactive)
same,GI50,SK-OV-3,22.5 µM (inactive)
same,GI50,HOP-92,6.01 µM (inactive)
same,GI50,KM12,11.6 µM (inactive)
same,GI50,U-251,11.5 µM (inactive)
same,GI50,SNB-19,15.5 µM (inactive)
same,GI50,LOX IMVI,9.55 µM (inactive)
same,GI50,SF-539,12 µM (inactive)
same,GI50,HCT-15,4.84 µM
same,GI50,HCT-116,3.33 µM (inactive)
same,GI50,RPMI-8226,3.42 µM (inactive)
same,GI50,A549,12.9 µM (inactive)
same,GI50,SK-MEL-5,11.3 µM (inactive)
same,GI50,SF-268,6.61 µM (inactive)
same,GI50,OVCAR-3,2.74 µM (inactive)
same,GI50,CCRF-CEM,2.18 µM (inactive)
same,GI50,K562,4.46 µM (inactive)
same,GI50,SK-MEL-28,5.94 µM (inactive)
same,GI50,HL-60,3 µM (inactive)
COc1cc(Cn2c3ccccc3c3cc(C)cc(OC)c32)cc2c1[nH]c1ccccc12,GI50,DMS-114,20 µM (inactive)
same,GI50,SNB-78,23.1 µM (inactive)
same,GI50,HCC 2998,> 25 µM (inactive)
same,GI50,OVCAR-8,10.5 µM (inactive)
same,GI50,786-0,> 25 µM (inactive)
same,GI50,COLO 205,> 25 µM (inactive)
same,GI50,SK-MEL-2,> 25 µM (inactive)
same,GI50,Malme-3M,> 25 µM (inactive)
same,GI50,M19-MEL,> 25 µM (inactive)
same,GI50,IGROV-1,> 25 µM (inactive)
same,GI50,SN12C,> 25 µM (inactive)
same,GI50,TK-10,> 25 µM (inactive)
same,GI50,UO-31,> 25 µM (inactive)
same,GI50,DLD-1,> 25 µM (inactive)
same,GI50,OVCAR-5,> 25 µM (inactive)
same,GI50,SK-OV-3,> 25 µM (inactive)
same,GI50,U-251,> 25 µM (inactive)
same,GI50,SNB-19,> 25 µM (inactive)
same,GI50,HCT-116,> 25 µM (inactive)
same,GI50,RPMI-8226,> 25 µM (inactive)
same,GI50,SK-MEL-5,> 25 µM (inactive)
same,GI50,OVCAR-3,10.2 µM (inactive)
same,GI50,SK-MEL-28,> 25 µM (inactive)
